The test has as its target T1, Human Polθ polymerase domain (aa1820-2590) (Homo sapiens, UniProt O75417).
T1 construct: Human Polθ polymerase domain (aa1820-2590) was expressed in E. Coli; made in house; host or cells: E. coli
T1 sequence (O75417 1820-2590): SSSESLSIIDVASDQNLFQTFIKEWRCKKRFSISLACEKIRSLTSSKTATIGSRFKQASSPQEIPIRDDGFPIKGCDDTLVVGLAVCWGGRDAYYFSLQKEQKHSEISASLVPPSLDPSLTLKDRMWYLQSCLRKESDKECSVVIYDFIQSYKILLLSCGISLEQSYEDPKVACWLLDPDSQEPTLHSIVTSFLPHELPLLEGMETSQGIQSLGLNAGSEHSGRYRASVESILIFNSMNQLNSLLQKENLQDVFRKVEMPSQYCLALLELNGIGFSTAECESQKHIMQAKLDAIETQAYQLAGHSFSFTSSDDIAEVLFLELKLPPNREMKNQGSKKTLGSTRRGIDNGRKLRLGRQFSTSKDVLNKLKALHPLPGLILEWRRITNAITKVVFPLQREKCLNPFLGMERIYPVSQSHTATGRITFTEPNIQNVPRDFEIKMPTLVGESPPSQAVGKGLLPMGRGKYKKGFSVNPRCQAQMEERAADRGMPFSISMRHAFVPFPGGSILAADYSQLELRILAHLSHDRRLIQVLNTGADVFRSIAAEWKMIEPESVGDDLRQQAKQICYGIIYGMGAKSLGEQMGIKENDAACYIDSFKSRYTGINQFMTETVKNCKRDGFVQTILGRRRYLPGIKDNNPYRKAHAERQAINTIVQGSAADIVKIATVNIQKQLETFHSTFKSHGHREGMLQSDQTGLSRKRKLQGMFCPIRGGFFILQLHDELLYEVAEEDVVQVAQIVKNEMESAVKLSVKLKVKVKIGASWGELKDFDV
Put plainly: Polθ Polymerase Domain WT KI Assay (PicoGreen). Particulars: 100 nM DNA substrate, 0.156 nM Polθ, initial rates vs inhibitor concentration. The format is biochemical. An outline of the steps:
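E. coli-expressed human Polθ polymerase domain (aa1820-2590) on annealed DNA II Short/Long primer-template (1.2:1), in 25 mM Tris pH 7.5, NaCl, 5% glycerol, 0.01% Triton X-100, 0.1 mg/ml BSA, 1 mM DTT, 1% DMSO. EDTA-quenched timepoints to 180 min, PicoGreen fluorescence. Initial rates vs inhibitor concentration fitted four-parameter for KI.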

The structures appear in SMILES notation. Counter-ions that a name gives are not always drawn.

The Ki is the dissociation constant of the complex between target and ligand, obtained from inhibition or displacement. Low values mean a stronger hold on the target, high ones a looser hold on the target. `Cc1cc(C(F)(F)F)cc(N2C(=O)C[C@@H]3CN(CCN4CCN(C)CC4)c4c(C)cccc4NC(=O)[C@H]32)n1` [Example 149, (3aR,11aS)-6-Methyl-1-(6-methyl-4-(trifluoromethyl)pyridin-2-yl)-5-(2-(4-methylpiperazin-1-yl)ethyl)-1,3a,4,5,10,11a-hexahydro-2H-benzo[b]pyrrolo[2,3-f][1,4]diazocine-2,11(3H)-dione] returned a Ki of 3.25 nM. The value for `Cc1cc(C(F)(F)F)cc(N2C(=O)C[C@@H]3CN(CCN4CC[C@H](O)C4)c4c(Cl)cccc4N(C)C(=O)[C@H]32)n1` [Example 32, (3aR,11aS)-6-Chloro-5-(2-((S)-3-hydroxypyrrolidin-1-yl)ethyl)-10-methyl-1-(6-methyl-4-(trifluoromethyl)pyridin-2-yl)-1,3a,4,5,10,11a-hexahydro-2H-benzo[b]pyrrolo[2,3-f][1,4]diazocine-2,11(3H)-dione] was 6.78 nM; that for `Cc1cc(C(F)(F)F)cc(N2C(=O)C[C@@H]3CN(CC4CNCCO4)c4c(Cl)cccc4N(C)C(=O)[C@H]32)n1` (single isomer, unassigned) [Example 109a] was 1.11 nM. The compound `Cc1cc(C(F)(F)F)cc(N2C(=O)C[C@@H]3CN(Cc4ccc([C@@H]5CCCN5C)cc4)c4c(F)cccc4N(C)C(=O)[C@H]32)n1` (racemic) [Example 125b, (3aR,11aS)-6-Fluoro-10-methyl-1-(6-methyl-4-(trifluoromethyl)pyridin-2-yl)-5-(4-((S/R)-1-methylpyrrolidin-2-yl)benzyl)-1,3a,4,5,10,11a-hexahydro-2H-benzo[b]pyrrolo[2,3-f][1,4]diazocine-2,11(3H)-dione] returned a Ki of 2.48 nM. In turn, `Cc1cc(C(F)(F)F)cc(N2C(=O)C[C@@H]3CN(Cc4nc5n(c4C)CCN(C)C5)c4c(C)cccc4N(C)C(=O)[C@H]32)n1` [Example 82, (3aR,11aS)-5-((3,7-Dimethyl-5,6,7,8-tetrahydroimidazo[1,2-a]pyrazin-2-yl)methyl)-6,10-dimethyl-1-(6-methyl-4-(trifluoromethyl)pyridin-2-yl)-1,3a,4,5,10,11a-hexahydro-2H-benzo[b]pyrrolo[2,3-f][1,4]diazocine-2,11(3H)-dione] returned a Ki of 0.431 nM. Next, `CC(=O)N1CCN(CCN2C[C@H]3CC(=O)N(c4cc(C(F)(F)F)cc(C)n4)[C@@H]3C(=O)N(C)c3cccc(C)c32)CC1` [Example 55, (3aR,11aS)-5-(2-(4-Acetylpiperazin-1-yl)ethyl)-6,10-dimethyl-1-(6-methyl-4-(trifluoromethyl)pyridin-2-yl)-1,3a,4,5,10,11a-hexahydro-2H-benzo[b]pyrrolo[2,3-f][1,4]diazocine-2,11(3H)-dione hydrochloride]: 0.891 nM; `Cc1cc(C(F)(F)F)cc(N2C(=O)C[C@@H]3CN(CCN4CCN(C)[C@H](CO)C4)c4c(C)cccc4N(C)C(=O)[C@H]32)n1` [Example 15, (3aR,11aS)-5-(2-((S)-3-(Hydroxymethyl)-4-methylpiperazin-1-yl)ethyl)-6,10-dimethyl-1-(6-methyl-4-(trifluoromethyl)pyridin-2-yl)-1,3a,4,5,10,11a-hexahydro-2H-benzo[b]pyrrolo[2,3-f][1,4]diazocine-2,11(3H)-dione]: 1.22 nM. The value for `Cc1cc(C(F)(F)F)cc(N2C(=O)C[C@@H]3CN(C[C@H]4CCNC4)c4c(C)cccc4N(C)C(=O)[C@H]32)n1` [Example 104, (3aR,11aS)-6,10-Dimethyl-1-(6-methyl-4-(trifluoromethyl)pyridin-2-yl)-5-(((S)-pyrrolidin-3-yl)methyl)-1,3a,4,5,10,11a-hexahydro-2H-benzo[b]pyrrolo[2,3-f][1,4]diazocine-2,11(3H)-dione hydrochloride] was 2.95 nM.

Values taken from patent US20260124214A1, “HETEROCYCLIC COMPOUNDS FOR USE IN THE TREATMENT OF CANCER” (ARTIOS PHARMA LIMITED, priority 2021, published 2026).
